Source: patent US20160222014A1, “COMPOUNDS FOR REGULATING FAK AND/OR SRC PATHWAYS” (ASANA BIOSCIENCES, LLC, priority 2013, published 2016)

Biological target: T1, FAK phosphorylated at Y397 in HEK-FAK cell line overexpressing human FL FAK protein (Homo sapiens, UniProt Q05397)
T1 construct: expressed in transfected cells
Test: Cell based assay, Phospho-FAK ELISA
Conditions: HEK stb; read-out: pFAK EC50 (μM) HEK stb
Method in brief: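 Stable HEK293 line overexpressing full-length human FAK, kept under 0.8 mg/mL Zeocin. In lysates, FAK Y397 autophosphorylation was measured by sandwich ELISA: total-FAK capture antibody, biotinylated pY397-specific detection antibody, streptavidin-HRP with TMB substrate.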

T1 sequence (Q05397 whole entry): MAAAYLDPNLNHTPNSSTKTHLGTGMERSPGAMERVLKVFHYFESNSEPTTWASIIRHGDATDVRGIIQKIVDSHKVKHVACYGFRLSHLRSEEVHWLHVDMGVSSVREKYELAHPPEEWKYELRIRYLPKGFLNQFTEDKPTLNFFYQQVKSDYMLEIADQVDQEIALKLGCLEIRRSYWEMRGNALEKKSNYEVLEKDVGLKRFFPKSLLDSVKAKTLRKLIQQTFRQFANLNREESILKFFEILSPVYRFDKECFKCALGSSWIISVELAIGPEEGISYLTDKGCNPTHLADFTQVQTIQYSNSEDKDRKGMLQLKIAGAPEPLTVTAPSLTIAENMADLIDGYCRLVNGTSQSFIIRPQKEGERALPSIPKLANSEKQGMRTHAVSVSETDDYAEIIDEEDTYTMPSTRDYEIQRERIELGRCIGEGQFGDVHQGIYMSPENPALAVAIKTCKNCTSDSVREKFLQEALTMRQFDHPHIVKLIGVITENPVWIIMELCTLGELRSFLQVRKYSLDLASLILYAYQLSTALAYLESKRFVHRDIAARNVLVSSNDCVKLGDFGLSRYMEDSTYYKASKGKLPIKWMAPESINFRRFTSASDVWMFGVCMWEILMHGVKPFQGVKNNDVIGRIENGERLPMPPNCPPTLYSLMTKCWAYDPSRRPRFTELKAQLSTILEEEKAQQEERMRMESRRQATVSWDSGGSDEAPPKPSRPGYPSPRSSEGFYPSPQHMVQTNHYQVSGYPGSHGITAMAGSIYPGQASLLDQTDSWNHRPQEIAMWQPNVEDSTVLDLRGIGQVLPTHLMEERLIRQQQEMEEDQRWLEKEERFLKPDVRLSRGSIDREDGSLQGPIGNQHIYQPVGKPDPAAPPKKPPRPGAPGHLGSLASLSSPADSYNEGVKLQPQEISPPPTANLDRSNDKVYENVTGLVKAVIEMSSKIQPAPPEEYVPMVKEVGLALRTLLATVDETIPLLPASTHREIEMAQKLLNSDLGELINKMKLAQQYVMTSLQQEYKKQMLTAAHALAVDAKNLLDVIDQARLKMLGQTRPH

EC50 [µM]	SMILES
> 1	O=C1CCc2cc(Nc3ncc4cnn(Cc5ccccc5OC(F)F)c4n3)ccc2N1 [Example 21]
> 1	FC(F)Oc1ccccc1Cn1ccc2cnc(Nc3ccc4ncsc4c3)nc21 [Example 36]
> 1	CC(=O)Nc1cccc(Nc2cc3c(cn2)cnn3Cc2ccccc2OC(F)F)c1 [Example 64]
> 1	FC(F)Oc1ccccc1Cn1ncc2cnc(Nc3ccc4ncsc4c3)cc21 [Example 82]
> 1	CN(c1ncccc1Cn1ncc2cnc(Nc3ccc4[nH]c(=O)[nH]c4c3)cc21)S(C)(=O)=O [Example 142]
> 1	CN(c1ncccc1Cn1ccc2cnc(Nc3ccc(NCCO)cc3)nc21)S(C)(=O)=O [Example 201]
> 1	CN(c1ncccc1Cn1ncc2cnc(Nc3ccc4c(c3)CCC(=O)N4)nc21)S(C)(=O)=O [Example 202]
> 1	O=C1CCc2cc(Nc3ncc4ccn(Cc5cccnc5N5CCCS5(=O)=O)c4n3)ccc2N1 [Example 216]
> 1	O=S(=O)(c1cccc2nsnc12)n1ccc2cnc(Nc3ccc(N4CCNCC4)cc3)nc21 [Example 253]
> 1	Cn1cc(Nc2ncc3ccn(S(=O)(=O)c4cccc5cccnc45)c3n2)cn1 [Example 318]
< 0.02	COc1cc(N2CCNCC2)ccc1Nc1cc2c(ccn2S(=O)(=O)c2cccc3cccnc23)cn1 [Example 330, N-(2-Methoxy-4-(piperazin-1-yl)phenyl)-1-(quinolin-8-ylsulfonyl)-1H-pyrrolo[3,2-c]pyridin-6-amine]
< 0.02	Cc1cc(Nc2ncc3cnn(S(=O)(=O)c4cccc5cccnc45)c3n2)ccc1N1CCNCC1 [Example 332]
> 1	COc1ccccc1S(=O)(=O)n1ncc2cnc(Nc3ccc(N4CCNCC4)cc3)nc21 [Example 335]
> 1	CN(c1ncccc1Cn1ccc2cnc(Nc3ccc(N4CCCC4CO)cc3)nc21)S(C)(=O)=O (centres unmarked) [Example 536]
